Laboratory results taken from PubChem BioAssay (NCI).
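Results reflect a 48-hour exposure of cells in 96-well plates to compound at five concentrations. Abbreviation: GI50, concentration required for 50% inhibition of growth. At the TGI there is no net growth.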 Where a SMILES comes first, the peptide text is derived from it.

How the values were obtained:
Experiment in all cases: growth of human tumour cells (NCI), 48 h
[1] = system: OVCAR-8 ovarian
[2] = system: SF-295 CNS
[3] = system: OVCAR-3 ovarian
[4] = system: NCI-H23 lung
[5] = system: NCI/ADR-RES ovarian
[6] = system: IGROV1 ovarian
[7] = system: U251 CNS
[8] = system: PC-3 prostate
[9] = system: HOP-92 NSCLC
[10] = system: A498 renal

Structure (SMILES) | TGI [1] [µM] | TGI [2] [µM] | TGI [3] [µM] | TGI [4] [µM] | TGI [5] [µM] | TGI [6] [µM] | TGI [7] [µM] | TGI [8] [µM] | TGI [9] [µM] | TGI [10] [µM] | GI50 [1] [µM] | GI50 [2] [µM] | GI50 [3] [µM] | GI50 [4] [µM] | GI50 [5] [µM] | GI50 [6] [µM] | GI50 [7] [µM] | GI50 [8] [µM] | GI50 [10] [µM] | GI50 [9] [µM]
CCc1n[nH]c(=O)n1/N=C(\C)c1ccc([N+](=O)[O-])cc1 | > 100 | > 100 | > 100 | > 100 | > 100 | > 100 | > 100 | > 100 | > 100 |  |  |  |  |  |  |  |  |  |  | 
O=C(NC(Cc1ccc(Br)cc1)C(=O)O)c1ccc(I)cc1 (centres undefined) | > 100 | > 100 | > 100 | > 100 | > 100 | > 100 | > 100 |  | > 100 | > 100 |  |  |  |  |  |  |  |  |  | 
CCCCCCCCCCCCCC1=C(O)C(=O)C(CC2=C(O)C(=O)C(CCCCCCCCCCCCC)=C(O)C2=O)=C(O)C1=O | > 100 | > 100 | > 100 | > 100 |  | > 100 | > 100 | > 100 | > 100 | > 100 |  |  |  |  |  |  |  |  |  | 
O=C1c2cccnc2C(=O)c2c1c(C(=O)OCCN1CCCCC1)c1ccccn21 | 1.02 | 0.2 | 2.81 | 0.0291 | 1.07 | 2.94 | 0.179 | 9.59 | 0.285 | 13.1 | 0.0344 | 0.0311 | 0.172 | 0.0057 | 0.0331 | 0.145 | 0.0183 | 0.16 | 0.065 | 0.0426
Cc1cc2c(c(O)c1-c1c(C)cc(O)c3c1C(=O)C=CC3=O)C(=O)C=CC2=O |  | 33.1 | 5.99 | 18.4 | 13.8 | 5.11 | 32.1 | 19 |  | 18.9 |  |  |  |  |  |  |  |  |  | 
O=C(Oc1c(Cl)cc(C2(c3cc(Cl)c(OC(=O)c4ccccc4)c(Cl)c3)CCCCC2)cc1Cl)c1ccccc1 | 34.1 | 28.6 | 27.9 | 23.4 | 27.1 | 23.4 | 26.8 | 21.3 | 21.8 | 24.1 |  |  |  |  |  |  |  |  |  | 
CC1C(=O)CC(c2cccs2)N(N=O)C1c1cccs1 (centres undefined) | > 100 | > 100 | > 79.5 | > 100 | > 100 | > 100 | > 100 |  | 83.3 | > 70.9 |  |  |  |  |  |  |  |  |  | 
CC1(CO)COS(=O)OC1 (centres undefined) | > 100 | > 100 | > 100 | > 100 | > 100 |  | > 100 | > 100 | > 100 | > 100 |  |  |  |  |  |  |  |  |  | 
OC[C@H]1NC[C@@H](O)[C@@H](O)[C@H]1O | > 100 | > 100 | > 100 | > 100 | > 100 | > 100 | > 100 | > 100 | > 100 | > 100 |  |  |  |  |  |  |  |  |  | 
O=C(CSCC(=O)N/N=C/c1ccccc1)N/N=C\c1ccccc1 | > 100 | > 100 | > 100 | > 100 | > 100 | > 100 | > 100 | > 100 | > 100 |  |  |  |  |  |  |  |  |  |  | 
S=c1c2[nH]cnc2ncn1CCSC1=NC=NC2=NC=NC21 (centres undefined) | > 100 | > 100 | > 100 | > 100 | > 100 | > 100 | > 100 | > 100 | > 100 | > 100 |  |  |  |  |  |  |  |  |  | 
Cc1[nH]c(=O)[nH]c(=O)c1/C=C/C(=O)NC(CO)CS(=O)CS(C)=O (centres undefined) | 122 | 77.5 | 31.1 | 43.7 | 263 | 103 | 39.6 |  | 44 | 130 |  |  |  |  |  |  |  |  |  | 
COc1ccc(-c2nc3c(nc2-c2ccc(OC)cc2)C(N)=NS(=O)(=O)N3)cc1 | > 100 | > 100 | > 100 | > 100 |  | > 100 | > 100 |  |  | > 100 |  |  |  |  |  |  |  |  |  | 
CSc1nc(CO)c(CO)n1C | > 100 | > 100 | > 100 | > 100 | > 100 | > 100 | > 100 |  | > 100 | > 100 |  |  |  |  |  |  |  |  |  | 
CN(Cc1cn(O)c2nc(=N)nc(N)c-2n1)c1ccc(C(=O)NC23CC4CC(CC(C4)C2)C3)cc1 | > 100 | > 100 | > 100 | > 100 | > 100 | > 100 | > 100 | > 100 |  | 57.1 |  |  |  |  |  |  |  |  |  | 
NC(=O)C1CCCN1C(=O)C(N)Cc1ccccc1 (stereo not drawn) (H-Phe-Pro-NH2; configuration not given here) | > 100 | > 100 | > 100 |  | > 100 | > 100 | > 100 | > 100 |  | > 100 |  |  |  |  |  |  |  |  |  | 
